Measurements from US8557798.

Conditions: from COC(=O)c1cccc(CN2C(=O)NC(C)(c3cccc(CCCN)c3)C2=O)c1; amide bond; sodium methoxide; MeOH; 7.5 mM; 85.0 °C; 96.0 h

CC12NC(=O)N(Cc3cccc(c3)C(=O)NCCCc3cccc1c3)C2=O (stereo not shown)
ring closure, yield of all isomers: 48%
